Measured values reported in the NIST ThermoML archive (doi:10.1016/j.jct.2015.10.017).
Numbers after ± are expanded uncertainties.

Experiments:
[1] = mn = molality of the nth substance listed, in mol/kg; details: 100 kPa, Liquid; for viscosity: Falling or rolling sphere viscometry; for speed of sound: Frequency=3 MHz, Sing-around technique in a fixed-path interferometer; for mass density: Vibrating tube method
[2] = 100 kPa, Liquid, Falling or rolling sphere viscometry

Question: Which results are given for `CC(=O)NCC(=O)O` [N-acetylglycine] + O?
Answer: viscosity ([1]; 288.15 K, m1 = 0.05): 1.091 ± 0.22 mPa·s; viscosity ([1]; 288.15 K, m1 = 0.1): 1.151 ± 0.23 mPa·s; viscosity ([1]; 288.15 K, m1 = 0.2): 1.187 ± 0.24 mPa·s; speed of sound ([1]; 288.15 K, m1 = 0.05): 1468.9 ± 10 m/s; speed of sound ([1]; 288.15 K, m1 = 0.1): 1472.1 ± 10 m/s; speed of sound ([1]; 288.15 K, m1 = 0.2): 1476.4 ± 10 m/s; mass density ([1]; 288.15 K, m1 = 0.05): 1001.32 ± 10 kg/m3; mass density ([1]; 288.15 K, m1 = 0.1): 1002.84 ± 10 kg/m3; mass density ([1]; 288.15 K, m1 = 0.2): 1005.54 ± 10 kg/m3; viscosity ([1]; 293.15 K, m1 = 0.05): 0.9664 ± 0.19 mPa·s; viscosity ([1]; 293.15 K, m1 = 0.1): 1.019 ± 0.2 mPa·s; viscosity ([1]; 293.15 K, m1 = 0.2): 1.048 ± 0.21 mPa·s; speed of sound ([1]; 293.15 K, m1 = 0.05): 1484.8 ± 10 m/s; speed of sound ([1]; 293.15 K, m1 = 0.1): 1486.7 ± 10 m/s; speed of sound ([1]; 293.15 K, m1 = 0.2): 1491.2 ± 10 m/s; mass density ([1]; 293.15 K, m1 = 0.05): 1000.04 ± 10 kg/m3; mass density ([1]; 293.15 K, m1 = 0.1): 1001.89 ± 10 kg/m3; mass density ([1]; 293.15 K, m1 = 0.2): 1004.84 ± 10 kg/m3; viscosity ([1]; 298.15 K, m1 = 0.05): 0.863 ± 0.17 mPa·s; viscosity ([1]; 298.15 K, m1 = 0.1): 0.9071 ± 0.18 mPa·s; viscosity ([1]; 298.15 K, m1 = 0.2): 0.9357 ± 0.19 mPa·s; speed of sound ([1]; 298.15 K, m1 = 0.05): 1499.6 ± 10 m/s; speed of sound ([1]; 298.15 K, m1 = 0.1): 1501.3 ± 10 m/s; speed of sound ([1]; 298.15 K, m1 = 0.2): 1504.5 ± 10 m/s; mass density ([1]; 298.15 K, m1 = 0.05): 998.801 ± 10 kg/m3; mass density ([1]; 298.15 K, m1 = 0.1): 1000.37 ± 10 kg/m3; mass density ([1]; 298.15 K, m1 = 0.2): 1003.79 ± 10 kg/m3; viscosity ([1]; 303.15 K, m1 = 0.05): 0.8379 ± 0.17 mPa·s; viscosity ([1]; 303.15 K, m1 = 0.1): 0.8579 ± 0.17 mPa·s; viscosity ([1]; 303.15 K, m1 = 0.2): 0.8904 ± 0.18 mPa·s; speed of sound ([1]; 303.15 K, m1 = 0.05): 1514 ± 10 m/s; speed of sound ([1]; 303.15 K, m1 = 0.1): 1516.3 ± 10 m/s; speed of sound ([1]; 303.15 K, m1 = 0.2): 1519 ± 10 m/s; mass density ([1]; 303.15 K, m1 = 0.05): 997.363 ± 10 kg/m3; mass density ([1]; 303.15 K, m1 = 0.1): 998.824 ± 10 kg/m3; mass density ([1]; 303.15 K, m1 = 0.2): 1002.6 ± 10 kg/m3; viscosity ([1]; 308.15 K, m1 = 0.05): 0.7411 ± 0.15 mPa·s; viscosity ([1]; 308.15 K, m1 = 0.1): 0.7624 ± 0.15 mPa·s; viscosity ([1]; 308.15 K, m1 = 0.2): 0.7856 ± 0.16 mPa·s; speed of sound ([1]; 308.15 K, m1 = 0.05): 1521.7 ± 10 m/s; speed of sound ([1]; 308.15 K, m1 = 0.1): 1524.7 ± 10 m/s; speed of sound ([1]; 308.15 K, m1 = 0.2): 1527.2 ± 10 m/s; mass density ([1]; 308.15 K, m1 = 0.05): 995.711 ± 10 kg/m3; mass density ([1]; 308.15 K, m1 = 0.1): 997.285 ± 10 kg/m3; mass density ([1]; 308.15 K, m1 = 0.2): 1001.3 ± 10 kg/m3

Question: With `O` [water] as the compound, how does the viscosity ([2]; 288.15 K) read?
Answer: 1.043 ± 0.21 mPa·s

Question: And the viscosity ([2]; 293.15 K)?
Answer: 0.9312 ± 0.19 mPa·s

Question: And the viscosity ([2]; 298.15 K)?
Answer: 0.8319 ± 0.17 mPa·s

Question: And the viscosity ([2]; 303.15 K)?
Answer: 0.7981 ± 0.16 mPa·s

Question: And the viscosity ([2]; 308.15 K)?
Answer: 0.7202 ± 0.14 mPa·s

Question: For `O` [water] + CC(=O)NCC(=O)O, which viscosity ([1]; 288.15 K, m2 = 0) is on record?
Answer: 1.043 ± 0.21 mPa·s

Question: And the viscosity ([1]; 293.15 K, m2 = 0)?
Answer: 0.9312 ± 0.19 mPa·s

Question: What about the viscosity ([1]; 298.15 K, m2 = 0) of the same compound?
Answer: 0.8319 ± 0.17 mPa·s

Question: What about the viscosity ([1]; 303.15 K, m2 = 0) of the same compound?
Answer: 0.7981 ± 0.16 mPa·s

Question: And the viscosity ([1]; 308.15 K, m2 = 0)?
Answer: 0.7202 ± 0.14 mPa·s

Question: With `O` [water] + O=P([O-])([O-])O.[K+].[K+] as the compound, how does the viscosity ([1]; 288.15 K, m2 = 0) read?
Answer: 1.043 ± 0.21 mPa·s

Question: What about the viscosity ([1]; 293.15 K, m2 = 0) of the same compound?
Answer: 0.9312 ± 0.19 mPa·s

Question: And the viscosity ([1]; 298.15 K, m2 = 0)?
Answer: 0.8319 ± 0.17 mPa·s

Question: What about the viscosity ([1]; 303.15 K, m2 = 0) of the same compound?
Answer: 0.7981 ± 0.16 mPa·s

Question: What about the viscosity ([1]; 308.15 K, m2 = 0) of the same compound?
Answer: 0.7202 ± 0.14 mPa·s

Question: Which viscosity ([1]; 288.15 K, m2 = 0) does the source give for `O` [water] + O=P([O-])([O-])O.[Na+].[Na+] here?
Answer: 1.043 ± 0.21 mPa·s

Question: What about the viscosity ([1]; 293.15 K, m2 = 0) of the same compound?
Answer: 0.9312 ± 0.19 mPa·s

Question: What about the viscosity ([1]; 298.15 K, m2 = 0) of the same compound?
Answer: 0.8319 ± 0.17 mPa·s

Question: And the viscosity ([1]; 303.15 K, m2 = 0)?
Answer: 0.7981 ± 0.16 mPa·s

Question: What about the viscosity ([1]; 308.15 K, m2 = 0) of the same compound?
Answer: 0.7202 ± 0.14 mPa·s
